In brackets after ≈: the same amount, converted by molar mass. Like-named read-outs stand apart in the source and are kept apart here.
What was measured:
[1] = test system: Staphylococcus aureus LRP 14; assay: Bacteriostatic power in solid medium (MIC), aerobic Gram positive; type: cell-based; conditions: Staphylococcus aureus
[2] = test system: Streptococcus pyogenes LRP 197; assay: as above; type: cell-based; conditions: Streptococcus pyogenes
[3] = test system: Streptococcus faecalis LRP 7; assay: as above; type: cell-based; conditions: Enterococcus faecalis
[4] = test system: Fusobacterium necrophorum ATCC 27852; assay: Bacteriostatic power in solid medium (MIC), anaerobic; type: cell-based; conditions: Fusobacterium necrophorum
[5] = test system: Bacteroides fragilis ATCC 23745; assay: as above; type: cell-based; conditions: Bacteroides fragilis
[6] = test system: Bacillus subtilis LRP 25; assay: Bacteriostatic power in solid medium (MIC), aerobic Gram positive; type: cell-based; conditions: Bacillus subtilis
[7] = test system: Corynebacterium diphteriae LRP 24; assay: as above; type: cell-based; conditions: Corynebacterium
[8] = test system: Micrococcus luteus ATCC 9341; assay: as above; type: cell-based; conditions: Micrococcus luteus
[9] = test system: Haemophilus influenzae ATCC 19418; assay: Bacteriostatic power in solid medium (MIC), aerobic Gram negative; type: cell-based; conditions: Haemophilus influenzae, ATCC19418, LRP 213, read-out: minimum inhibiting concentration
Description: (§1) Turning now to an examination of the novel macrolide antibiotics produced according to the present invention, they are all characterized by a bacteriostatic spectrum like that of erythromycin and by the stability in acidic environment, whereby their direct administration by oral route is possible, without having recourse to esters and/or salts, showing the afore mentioned disadvantages and problems. The above is confirmed by the following Table 1, wherein the MIC values are reported, indicating the bacteriostatic power, and by the Table 2, giving the stability values in acidic environment. Without having to be construed in a limiting sense, it seems plausible that the greater stability of the macrolide. antibiotics of the present invention can be attributed to the presence in the molecule of the antibiotic of the neutral sugar oleandrose (J. Antib. (1976) XXIX (7), 728).
(§2) Bacteriostatic power in solid medium of Erythromycin A, Erythromycin B,
(§3) aerobic and anaerobic bacteria, Gram positive and Gram negative minimum
(§4) inhibiting concentrations expressed in mcg/ml.

[10] = test system: Pseudomonas aeruginosa LRP 9; assay: as above; type: cell-based; conditions: Pseudomonas aeruginosa, LRP9, read-out: minimum inhibiting concentration
Description: as §1, §2, §3, §4

[11] = test system: Shigella sonnei LRP 5; assay: as above; type: cell-based; conditions: Shigella sonnei, LRP5, read-out: minimum inhibiting concentration
Description: as §1, §2, §3, §4

[12] = test system: Streptococcus pneumonieae LRP 53; assay: Bacteriostatic power in solid medium (MIC), aerobic Gram positive; type: cell-based; conditions: Streptococcus
[13] = test system: Clostridium perfrigens ATCC 3624; assay: Bacteriostatic power in solid medium (MIC), anaerobic; type: cell-based; conditions: Clostridium, ATCC3624, LRP 206, read-out: minimum inhibiting concentration
[14] = test system: Neisseria Gonorrhoeae ATCC 19424; assay: Bacteriostatic power in solid medium (MIC), aerobic Gram negative; type: cell-based; conditions: Neisseria gonorrhoeae
[15] = test system: Mycoplasma hominis I ATCC 14097; assay: as above; type: cell-based; conditions: Metamycoplasma hominis, ATCC14097, read-out: minimum inhibiting concentration
[16] = test system: Acholeplasma laidlawii ATCC 23206; assay: as above; type: cell-based; conditions: Acholeplasma laidlawii
[17] = test system: Streptococcus pneumonieae LRP 52; assay: Bacteriostatic power in solid medium (MIC), aerobic Gram positive; type: cell-based; conditions: Streptococcus
[18] = test system: Salmonella typhi LRP 8; assay: Bacteriostatic power in solid medium (MIC), aerobic Gram negative; type: cell-based; conditions: Salmonella enterica, TYPHI, read-out: minimum inhibiting concentration
[19] = test system: Escherichia coli LRP 50; assay: as above; type: cell-based; conditions: Escherichia coli, LRP50, read-out: minimum inhibiting concentration
[20] = test system: Streptococcus pyogenes ATCC 8668; assay: Bacteriostatic power in solid medium (MIC), aerobic Gram positive; type: cell-based; conditions: Streptococcus pyogenes
[21] = test system: Streptococcus faecalis sub. zymogenes ATCC 12958; assay: as above; type: cell-based; conditions: Enterococcus faecalis
[22] = test system: Micrococcus luteus ATCC 15957; assay: as above; type: cell-based; conditions: Micrococcus luteus, ATCC15957, LRP 193, Erythromicina resistant, read-out: minimum inhibiting concentration
Description: as §1, §2, §3, §4

[23] = test system: Staphylococcus aureus ATCC 14154; assay: as above; type: cell-based; conditions: Staphylococcus aureus, ATCC14154, LRP 78, Erythromicina resistant, read-out: minimum inhibiting concentration
Description: as §1, §2, §3, §4

[24] = physchem; type: physicochemical; conditions: acidic environment
Description: t 1/2 represents the half life time of the antibiotics as determined by
high pressure liquid phase chromatography (HPLC).

[25] = test system: Klebsiella pneumoniae LRP 54; assay: Bacteriostatic power in solid medium (MIC), aerobic Gram negative; type: cell-based; conditions: Klebsiella pneumoniae, LRP54, read-out: minimum inhibiting concentration
[26] = test system: Staphylococcus aureus ATCC 6538 P; assay: Bacteriostatic power in solid medium (MIC), aerobic Gram positive; type: cell-based; conditions: Staphylococcus aureus
[27] = test system: Proteus vulgaris ATCC 6380; assay: Bacteriostatic power in solid medium (MIC), aerobic Gram negative; type: cell-based; conditions: Proteus vulgaris, ATCC6380, read-out: minimum inhibiting concentration
[28] = test system: Streptococcus pneumonieae ATCC 6303; assay: Bacteriostatic power in solid medium (MIC), aerobic Gram positive; type: cell-based; conditions: Streptococcus
[29] = Relative solubility in water phase (extraction, TLC and HPLC control); type: physicochemical; conditions: relative to P 15148, P 15149 and P 15153; alkaline aqueous phase
Description: Before each extraction the pH of the aqueous phase is brought again to 9.

[30] = known; cited from earlier work
[31] = LRP14, read-out: minimum inhibiting concentration
[32] = LRP197, read-out: minimum inhibiting concentration
[33] = LRP7, read-out: minimum inhibiting concentration
[34] = ATCC27852, read-out: minimum inhibiting concentration
[35] = ATCC23745, read-out: minimum inhibiting concentration
[36] = LRP25, read-out: minimum inhibiting concentration
[37] = LRP24, read-out: minimum inhibiting concentration
[38] = ATCC9341, read-out: minimum inhibiting concentration
[39] = LRP53, read-out: minimum inhibiting concentration
[40] = ATCC19424, read-out: minimum inhibiting concentration
[41] = ATCC23206, read-out: minimum inhibiting concentration
[42] = LRP52, read-out: minimum inhibiting concentration
[43] = ATCC8668, read-out: minimum inhibiting concentration
[44] = ATCC12958, read-out: minimum inhibiting concentration
[45] = ATCC6538, read-out: minimum inhibiting concentration
[46] = ATCC6303, read-out: minimum inhibiting concentration

Row | SMILES | MIC [1, 31] | MIC [2, 32] | MIC [3, 33] | MIC [4, 34] | MIC [5, 35] | MIC [6, 36] | MIC [7, 37] | MIC [8, 38] | MIC [9] | MIC [10] | MIC [11] | MIC [12, 39] | MIC [13] | MIC [15] | MIC [18] | MIC [19] | MIC [22] | MIC [23] | MIC [25] | MIC [27] | further results
1 | CC[C@H]1OC(=O)[C@H](C)[C@@H](O[C@H]2C[C@H](OC)[C@@H](O)[C@H](C)O2)[C@H](C)[C@@H](O[C@@H]2O[C@H](C)C[C@H](N(C)C)[C@H]2O)[C@](C)(O)C[C@@H](C)C(=O)[C@H](C)[C@@H](O)[C@H]1C [P 15149, 3-O-oleandrosyl-5-O-desosaminyl-erythronolide B] | 0.78 µg/mL (≈ 1.11 µM) | 0.097 µg/mL (≈ 0.138 µM) | 0.78 µg/mL (≈ 1.11 µM) | > 25 µg/mL | 3.12 µg/mL (≈ 4.43 µM) | 0.039 µg/mL (≈ 0.0554 µM) | 0.049 µg/mL (≈ 0.0696 µM) | 0.097 µg/mL (≈ 0.138 µM) | 6.25 µg/mL (≈ 8.88 µM) | > 25 µg/mL | > 25 µg/mL | 0.097 µg/mL (≈ 0.138 µM) | 12.5 µg/mL (≈ 17.8 µM) | > 25 µg/mL | > 25 µg/mL | > 25 µg/mL | > 25 µg/mL | > 25 µg/mL | > 25 µg/mL | > 25 µg/mL | MIC [14, 40]: 0.195 µg/mL (≈ 0.277 µM); MIC [16, 41]: 12.5 µg/mL (≈ 17.8 µM); MIC [17, 42]: 0.097 µg/mL (≈ 0.138 µM); MIC [20, 43]: 0.097 µg/mL (≈ 0.138 µM); MIC [21, 44]: 0.78 µg/mL (≈ 1.11 µM); half-life ([24]; pH 2): 18 h; half-life ([24]; pH 3, read-out: t 1/2): > 100 h; half-life ([24]; pH 4, read-out: t 1/2): > 100 h; MIC [26, 45]: 0.78 µg/mL (≈ 1.11 µM); MIC [28, 46]: 0.097 µg/mL (≈ 0.138 µM)
2 | CO[C@H]1C[C@H](O[C@H]2[C@H](C)[C@@H](O[C@@H]3O[C@H](C)C[C@H](N(C)C)[C@H]3O)[C@](C)(O)C[C@@H](C)C(=O)[C@H](C)[C@@H](O)[C@@H](C)[C@@H](CCO)OC(=O)[C@@H]2C)O[C@@H](C)[C@@H]1O [P 15150, 3-O-oleandrosyl-5-O-desosaminyl-15-hydroxyerythronolide B] | 3.12 µg/mL (≈ 4.33 µM) | 0.097 µg/mL (≈ 0.135 µM) | 6.25 µg/mL (≈ 8.68 µM) | > 25 µg/mL | > 25 µg/mL | 3.12 µg/mL (≈ 4.33 µM) | 0.097 µg/mL (≈ 0.135 µM) | 0.195 µg/mL (≈ 0.271 µM) | > 25 µg/mL | > 25 µg/mL | > 25 µg/mL | 0.39 µg/mL (≈ 0.542 µM) | 6.25 µg/mL (≈ 8.68 µM) | > 25 µg/mL | 25 µg/mL (≈ 34.7 µM) | > 25 µg/mL | > 25 µg/mL | > 25 µg/mL | > 25 µg/mL | > 25 µg/mL | solubility in water phase [29]: more soluble than the others in water phase; MIC [14, 40]: 0.195 µg/mL (≈ 0.271 µM); MIC [16, 41]: 6.25 µg/mL (≈ 8.68 µM); MIC [17, 42]: 0.195 µg/mL (≈ 0.271 µM); MIC [20, 43]: 0.097 µg/mL (≈ 0.135 µM); MIC [21, 44]: 3.12 µg/mL (≈ 4.33 µM); half-life ([24]; pH 2, read-out: t 1/2): > 100 h; half-life ([24]; pH 3, read-out: t 1/2): > 100 h; half-life ([24]; pH 4, read-out: t 1/2): > 100 h; MIC [26, 45]: 3.12 µg/mL (≈ 4.33 µM); MIC [28, 46]: 0.195 µg/mL (≈ 0.271 µM)
3 | CO[C@H]1C[C@H](O[C@H]2[C@H](C)[C@@H](O[C@@H]3O[C@H](C)C[C@H](N(C)C)[C@H]3O)[C@@H](C)C[C@@]3(CO3)C(=O)[C@H](C)[C@@H](O)[C@@H](C)[C@@H](C)OC(=O)[C@@H]2C)O[C@@H](C)[C@@H]1O [oleandomycin, reference compound] | – | – | – | – | – | – | – | – | > 25 µg/mL | > 25 µg/mL | > 25 µg/mL | – | 3.12 µg/mL (≈ 4.54 µM) | > 25 µg/mL | > 25 µg/mL | > 25 µg/mL | > 25 µg/mL | > 25 µg/mL | > 25 µg/mL | > 25 µg/mL | MIC ([1]; LRP14, solid medium, LRP 14, Penycilline resistant, read-out: minimum inhibiting concentration): 0.39 µg/mL (≈ 0.567 µM); MIC ([2]; LRP197, solid medium, LRP 197, read-out: minimum inhibiting concentration): 0.195 µg/mL (≈ 0.283 µM); MIC ([3]; LRP7, solid medium, LRP 7, read-out: minimum inhibiting concentration): 1.56 µg/mL (≈ 2.27 µM); MIC ([4]; ATCC27852, solid medium, LRP 210, anaerobic, read-out: minimum inhibiting concentration): 6.25 µg/mL (≈ 9.09 µM); MIC ([5]; ATCC23745, solid medium, LRP 205, anaerobic, read-out: minimum inhibiting concentration): 0.39 µg/mL (≈ 0.567 µM); MIC ([6]; LRP25, solid medium, LRP 25, read-out: minimum inhibiting concentration): 0.39 µg/mL (≈ 0.567 µM); MIC ([7]; LRP24, solid medium, LRP 24, read-out: minimum inhibiting concentration): 0.097 µg/mL (≈ 0.141 µM); MIC ([8]; ATCC9341, solid medium, LRP 6, read-out: minimum inhibiting concentration): 0.049 µg/mL (≈ 0.0712 µM); toxicity [30]: high toxicity; MIC ([12]; LRP53, solid medium, LRP 53, read-out: minimum inhibiting concentration): 0.195 µg/mL (≈ 0.283 µM); MIC ([14]; ATCC19424, solid medium, LRP 214, read-out: minimum inhibiting concentration): 0.195 µg/mL (≈ 0.283 µM); MIC ([16]; ATCC23206, solid medium, LRP 204, read-out: minimum inhibiting concentration): 6.25 µg/mL (≈ 9.09 µM); MIC ([17]; LRP52, solid medium, LRP 52, read-out: minimum inhibiting concentration): 0.195 µg/mL (≈ 0.283 µM); MIC ([20]; ATCC8668, solid medium, LRP 34, read-out: minimum inhibiting concentration): 0.195 µg/mL (≈ 0.283 µM); MIC ([21]; ATCC12958, solid medium, LRP 61, read-out: minimum inhibiting concentration): 1.56 µg/mL (≈ 2.27 µM); MIC ([26]; ATCC6538, solid medium, LRP 39, read-out: minimum inhibiting concentration): 0.39 µg/mL (≈ 0.567 µM); MIC ([28]; ATCC6303, solid medium, LRP 35, read-out: minimum inhibiting concentration): 0.195 µg/mL (≈ 0.283 µM)

— patent publication US4560662A, “Streptomyces antibioticus ATCC 31771 and process for obtaining same” (priority 1981, dated 1985)
